Results from paper PMC4192545, “Suramin Inhibits Hsp104 ATPase and Disaggregase Activity” (PLoS ONE, 2014).

How the values were obtained:
[1] = target: T1, Hsp104 (Saccharomyces cerevisiae, UniProt P31539); assay: High-throughput Hsp104 ATPase plate assay (malachite green, 384-well); assay type: biochemical, yeast; settings: 60 min
T1 construct: made in house; host or cells: E. coli BL21-DE3 RIL
Procedure: ATPase activity was assessed by the release of inorganic phosphate determined using a malachite green phosphate detection kit (Innova Biosciences, Cambridge, United Kingdom). Microtiter plates (384-well) were purchased from PerkinElmer (Waltham, MA). Three libraries were screened: The NIH Clinical Collection (450 small molecules), the Spectrum Collection (2,000 compounds, MicroSource, Gaylordsville, CT) and the HitFinder Collection (14,400 compounds, Maybridge).
We adapted the inorganic phosphate colorimetric assay to fit a 384-well plate format. A Ź-factor between 0.8 and 1 was calculated for the assay. A 2X Hsp104 stock solution was dispensed into each well using a Biotek microflo (Biotek Instruments, Winooski, VT). Compounds were then transferred using a Janus 96/384 Modular Dispensing Tool (PerkinElmer). Finally, a 2X ATP solution was dispensed using the Biotek microflo. Final concentrations of Hsp104 (monomer) and ATP were 0.25 µM and 1 mM respectively. Seeking to avoid the discovery of competitive inhibitors, we designed our high-throughput screen to use a 100-fold excess of ATP with respect to the test compounds (10 µM each). Final buffer conditions were 20 mM HEPES-KOH pH 7.4, 20 mM NaCl and 10 mM MgCl2. The ATPase reaction was allowed to continue for 60 min, at which time the reaction was terminated by addition of the colorimetric reagent. Absorbance was measured at 635 nm on an EnVision Xcite Multilabel plate reader (PerkinElmer). Hits were tested in duplicate. […] Ten of these were subjected to a 6-point titration (40, 13.3, 4.44, 1.45, 0.49 and 0 µM) in the absence or presence of Triton X-100, BSA, or both Triton X-100 and BSA at the specified concentrations. Heat maps were created in Excel for Mac 2011 (Microsoft Corporation) using the Conditional Formatting feature (Color Scales).
We aimed to identify small molecules capable of inhibiting Hsp104. To do so, we employed high-throughput screening using Hsp104 ATPase activity as a proxy for function. To detect changes in Hsp104 ATPase activity, we used a colorimetric assay detecting free inorganic phosphate (Pi) based on the formation of a colored complex between Pi and a dye molecule under acidic conditions, [44]. Pi is produced from the Hsp104-driven hydrolysis of ATP. The colored complex concentration, a surrogate for Pi concentration and ATPase rate, is determined by measuring the absorbance of a sample at 635 nm. We used recombinant Hsp104 purified from E. coli. An Hsp104 mutant with mutations in both NBD1 and NBD2 Walker B sequence motifs (Hsp104^DWB, carrying ATPase ablating mutations E285Q: E687Q) was used as a negative control for ATPase activity. Hsp104^WT activity results in a high A635 (high ATPase), while Hsp104^DWB activity results in a low A635 (low ATPase). We optimized the Pi colorimetric assay to fit a 384-well plate format. We selected the Hsp104 concentration (0.25 µM) on the basis of previous experience in our laboratory. The ATP concentration was selected to be in a 100-fold excess of ATP with respect to the test compounds. […] We screened 16,850 compounds from the NIH Clinical Collection as well as the Spectrum and Maybridge compound libraries. […] For instance, hexachlorophene and tannic acid inhibit Hsp104 ATPase activity by ∼80%, while Merbromin and Sennoside a inhibit by ∼20% ( Table 1 ).

[2] = target: T2, Hsp104^N728A (Saccharomyces cerevisiae, UniProt P31539, N728A); assay: ATPase assay, Hsp104^N728A; assay type: biochemical, yeast; settings: read-out: Hsp104^N728A ATPase activity relative to uninhibited protein
T2 construct: made in house; host or cells: E. coli BL21-DE3 RIL
Procedure: Wild-type or mutant Hsp104 (0.25 µM monomer) in ATPase buffer (20 mM HEPES-KOH pH 7.4, 20 mM NaCl and 10 mM MgCl2) was incubated for 60 or 10 min at 25°C in the presence of ATP (1 mM) as noted. ATPase activity was assessed by the release of inorganic phosphate determined by using a malachite green phosphate detection kit (Innova).
Figure 7 Hsp104 variants respond differently to Suramin than Hsp104^WT. (A) Hsp104 variants (0.25 µM monomer) were incubated for 10 min with ATP (1 mM) and varying concentrations of Suramin. The amount of Pi produced was measured by absorbance at 635 nm. Absorbance values were normalized to the absorbance produced by each Hsp104 variant in the absence of inhibitor. Values represent mean ±S.D. (n = 6). (B) Urea-denatured firefly luciferase aggregates were incubated for 90 min at 25°C with Hsp104 variants (1 µM hexamer) plus 1∶1 mixtures of ATP and ATPγS (or ATP alone) and varying concentrations of Suramin. Luciferase reactivation was then determined and normalized to untreated disaggregase activity for each variant in the presence of ATPγS: ATP (or ATP alone). 1∶1 mixtures of ATP and ATPγS were used for Hsp104^WT and Hsp104^T317A, while ATP alone was used for Hsp104^A503V and Hsp104^N728A. Values represent mean ±S.D. (n = 6–12).

[3] = system: Δpdr5 yeast; assay: [PSI+] propagation in Δpdr5 yeast; assay type: cell-based; settings: Suramin 100 µM, data not shown

T1 sequence (P31539 whole entry): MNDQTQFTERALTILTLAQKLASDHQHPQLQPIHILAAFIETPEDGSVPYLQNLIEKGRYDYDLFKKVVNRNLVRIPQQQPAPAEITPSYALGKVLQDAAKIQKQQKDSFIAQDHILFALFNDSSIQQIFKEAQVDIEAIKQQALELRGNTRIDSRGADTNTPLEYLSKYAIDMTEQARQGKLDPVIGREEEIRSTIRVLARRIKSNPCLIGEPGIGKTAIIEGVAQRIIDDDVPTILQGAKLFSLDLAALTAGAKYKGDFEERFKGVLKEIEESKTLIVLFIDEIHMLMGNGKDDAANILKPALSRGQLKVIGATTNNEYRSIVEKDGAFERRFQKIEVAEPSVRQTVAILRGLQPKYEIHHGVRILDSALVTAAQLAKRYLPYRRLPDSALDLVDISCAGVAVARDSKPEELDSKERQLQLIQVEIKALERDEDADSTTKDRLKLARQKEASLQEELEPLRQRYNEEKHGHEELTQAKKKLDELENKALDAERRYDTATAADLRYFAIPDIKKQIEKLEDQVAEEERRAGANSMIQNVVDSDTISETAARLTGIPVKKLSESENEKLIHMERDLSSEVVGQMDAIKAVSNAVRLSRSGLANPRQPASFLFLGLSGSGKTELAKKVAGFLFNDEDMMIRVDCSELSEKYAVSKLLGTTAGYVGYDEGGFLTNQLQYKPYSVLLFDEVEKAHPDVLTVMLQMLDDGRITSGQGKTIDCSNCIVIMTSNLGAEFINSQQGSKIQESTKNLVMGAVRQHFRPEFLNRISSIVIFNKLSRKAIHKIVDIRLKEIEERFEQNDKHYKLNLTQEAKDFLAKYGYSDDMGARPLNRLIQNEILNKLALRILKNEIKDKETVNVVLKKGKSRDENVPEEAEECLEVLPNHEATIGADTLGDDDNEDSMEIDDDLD
T2 sequence (P31539 whole entry N728A): as the sequence (P31539 whole entry) above, with N728A counted along it

How did the inhibition at 10 µM ([1]; 10 µM compound, Hsp104 0.25 µM monomer, ATP 1 mM, mean ±S.D. (n = 2), read-out: % Inhibition of Hsp104 ATP hydrolysis) turn out when Cc1ccc(C(=O)Nc2ccc(S(=O)(=O)O)c3cc(S(=O)(=O)O)cc(S(=O)(=O)O)c23)cc1NC(=O)c1cccc(NC(=O)Nc2cccc(C(=O)Nc3cc(C(=O)Nc4ccc(S(=O)(=O)O)c5cc(S(=O)(=O)O)cc(S(=O)(=O)O)c45)ccc3C)c2)c1 [Suramin] was run?
Its inhibition at 10 µM is 50.8 ± 2.83%.

What about the “Inhibition of Hsp104 ATPase activity in the presence of both Triton X-100 and BSA” value ([1]; titration 40-0.49 µM, Triton X-100 and BSA, heat map Figure 1A) of the same molecule?
The value was “most significantly inhibit Hsp104 ATPase activity”.

And the activity at 100 µM [2]?
Its activity at 100 µM is ~75%.

What about the “Effect on [PSI+] propagation” value [3] of the same molecule?
The value was “impaired neither”.
